This is an account of results in article PMC4336141, “Repurposing Auranofin as a Lead Candidate for Treatment of Lymphatic Filariasis and Onchocerciasis” (PLoS Neglected Tropical Diseases, 2015).

Each structure is given as a SMILES string. Entries after “also recorded” stand apart in the source; their conditions may differ.

The subject of one data set is adult B. malayi. Kind of data set: Adult Brugia malayi worm motility assay (Worminator) in vitro. Type of data set: cell-based. The settings on record: for IC50: B. malayi, Adult, Day 3, motility. Here is the method: (§1) Adult female and male Brugia (B. malayi and B. pahangi) were shipped from TRS Labs Inc., Athens, GA and assayed using methods described by Marcellino et al. (2012). Individual females were placed in each well of a 24-well plate with media (RPMI-1640 with 25 mM HEPES, 2.0 g/L NaHCO3, 5% heat inactivated FBS, and 1X Antibiotic/Antimycotic solution). Excess media was removed from plates using a Biomek FxP, leaving 500 μL of media per well. Initial screening of a library of FDA-approved compounds, compiled by the Small Molecule Discovery Center at the University of California San Francisco, was conducted at 10 μM per compound, and 1% DMSO was used as a negative control. All drugs including auranofin (Enzo Life Sciences, Farmingdale, NY) were dissolved in DMSO (Sigma-Aldrich, St. Louis, MO) and 10 mM stock solutions were stored at -20°C. Four worms were used as replicates for each concentration and worm plates were kept in a 37°C, 5% CO2 incubator for four days.
(§2) To determine the effect of a compound on worm motility, individual worm movements were counted as the number of pixels displaced per second by each worm in each well using the Worminator. Each plate of worms was video recorded for approximately 60 seconds, and mean movement units (MMUs) were determined for individual worms. Percent inhibition of motility was calculated by dividing the MMUs of the treated worms by the control average MMUs, subtracting the value from 1.0, flooring the values to zero and multiplying by 100%. Videos were recorded for 4 days, including the first day of the assay (Day 0). IC50 determinations were conducted at 10 μM, 3 μM, 1 μM, 0.3 μM, 0.1 μM and 0.03 μM, with 1% DMSO used as a control. IC50 assays were repeated at the same concentrations and at six point, three-fold dilutions from 1 μM to 0.003 μM or 3 μM to […] to ensure that activity was consistent between assays. Prism 4.0 was used to calculate IC50 values using a non-linear regression curve fit. The means of all IC50s with R^2 values greater than or equal to 0.7 are reported.

For a further data set, the system named is adult B. pahangi. Kind of data set: Adult Brugia pahangi worm motility assay (Worminator) in vitro. The conditions noted are these: for IC50: B. pahangi, Adult, Day 3, motility. Type of data set: cell-based. Here is the method: as §1, §2
Data set [1] deals with Recombinant B. malayi TrxR (rBmTrxR). Kind of data set: Recombinant B. malayi TrxR (rBmTrxR) DTNB inhibition assay. Type of data set: biochemical, Brugia malayi. Here is the method:
Recombinant 6-His-tagged B. malayi TrxR (rBmTrxR) was produced in E. coli BL21(DE3) in the presence of pSUABC [29] in LB medium supplemented with 20 μg/mL riboflavin under conditions for optimal selenoprotein expression. An overnight starter culture in LB with 50 μg/mL ampicillin and 34 μg/mL chloramphenicol was diluted (1:100) into in LB medium with the same antibiotics. When the culture reached an OD600 = 0.8, the medium was supplemented with 5 μM sodium selenite and 100 μg/mL L-cysteine. When the culture OD600 = 2, riboflavin (20 μg/mL) was added and protein expression was induced by the addition of isopropyl β-D-1-thiogalactopyranoside (50 μM). At this point the cultures were shifted to 24°C and incubated for 24 hr. Cells were collected by centrifugation, lysed by alternative freeze-thaw cycles, and resuspended in lysis buffer (50 mM potassium phosphate, pH 7.8, 500 mM NaCl, 30 mM imidazole, 1 mg/mL lysozyme, 1 mM phenylmethanesulfonylfluoride) supplemented with 100 μM flavin adenine dinucleotide. The sample was sonicated and cellular debris pelleted at 25,000 x g at 4°C for 25 min. The supernatant was collected and filtered through a 0.45 μm filter before purification by immobilized metal ion affinity chromatography using a His-Trap FF column (GE Healthcare). The column was washed with 10 column volumes binding buffer (50 mM potassium phosphate, pH 7.8, 500 mM NaCl, 30 mM imidazole) and then with 5 column volumes of buffer A (binding buffer with 100 mM imidazole). TrxR protein was eluted in 3 × 1 mL buffer B (binding buffer with 500 mM imidazole).Protein was concentrated (Amicon Ultra-4 10K) and purity was verified by SDS-PAGE and quantified by absorbance at 280 nm (ε = 69.76 mM^-1 cm^-1).
rBmTrxR activity was assayed in 0.1 M potassium phosphate (pH 7.2) with 10 mM EDTA and 25 nM rBmTrxR. rBmTxrR was pre-incubated for 20 min with NADPH (100 μM) and auranofin (ICN Pharmaceuticals, now Valeant Pharmaceuticals, Bridgewater, NJ) or aurothioglucose (USP Reference Standards, Rockville, MD) in DMSO in 100 μL, followed by addition of an equal volume of buffer with NADPH (200 μM) and DTNB (6 mM) with reaction progress monitored at λ = 412 nm for TNB production. The concentration of DMSO in all reactions was 3.5%.

In another data set the test system is adult female B. pahangi. The data set is described as follows: Transmission electron microscopy of treated adult female B. pahangi. Type of data set: cell-based, Brugia pahangi. The settings on record: auranofin 1 μM, 0.3 μM or 0.1 μM overnight, vs 1% DMSO. The procedure: Adult female B. pahangi worms were incubated with either 1 μM, 0.3 μM, or 0.1 μM auranofin, 10 μM flubendazole (as a positive control), or 1% DMSO overnight, then cut into 3 segments separating the anterior, middle and posterior sections. The middle sections were further cut into 1 mm sized pieces in fixative (2.5% glutaraldehyde and 2% paraformaldehyde in 0.1 M sodium cacodylate buffer, pH 7.3–7.4) and stored at 4°C. Middle sections were subsequently treated with 1% tannic acid for 1 hour, followed by three buffer washes before post fixation staining with 2% osmium tetroxide for 1 hour. The samples were washed three times in buffer before dehydration in an ethanol series. Worm sections were then infiltrated with propylene oxide, embedded in epon 812 resin and polymerized in a vacuum oven at 60°C overnight. Ultrathin sections were cut using an RMC MTX ultramicrotome with a Diatome diamond knife followed by post staining of the grids with saturated ethanolic uranyl acetate and Reynolds lead citrate. Samples were imaged on a FEI Tecnai 12 spirit TEM operated at 80 kV. A similar procedure was performed on adult female O. ochengi worm masses that were cultured for 7 days with 10 μM auranofin before fixation of cut pieces of the adult female mass. Untreated adult female masses cultured for 7 days and fixed by the same procedure served as the control.

For data set [2], the system named is cysteine protease cathepsin B. The arrangement: method as in PMID 16789749. The settings on record: cited from earlier work.
On the set-up of data set [3]: method as in PMID 6417628. The settings on record: patients with rheumatoid arthritis treated for an average of 6 months; cited from earlier work.

What is called IC50 is the concentration needed to halve the response being measured. Consider `CC[PH](CC)(CC)[Au][S][C@@H]1O[C@H](COC(C)=O)[C@@H](OC(C)=O)[C@H](OC(C)=O)[C@H]1OC(C)=O` [auranofin, 2,3,4,6-tetra-O-acetyl-1-thio-beta-D-glucopyranosato-S (triethylphosphine) gold], for which the IC50 was 1.1 µM in the data set with adult B. malayi (Female); 0.3 µM in the data set with adult B. malayi (Male); 0.5 µM in the data set with adult B. pahangi (Female); 0.1 µM in the data set on adult B. pahangi (Male); 0.003 µM in data set [1] (25 nM rBmTrxR, 20 min pre-incubation with NADPH, DTNB substrate); approximately 250 µM in data set [2]. In addition, the inhibition of motility in the data set on adult B. malayi (female B. malayi, 3 μM, within 18 hours of incubation) is listed as 97%; with adult B. pahangi (female B. pahangi, 3 μM, within 18 hours of incubation), 97%. Also, the “mode of inhibition of rBmTrxR” value in data set [1] is listed as “irreversibly inhibit rBmTrxR at a one-to-one molar ratio”. Further, the “ultrastructure (TEM) of adult female B. pahangi” value in the data set on adult female B. pahangi is reported as “considerable damage in the hypodermal region; also recorded: extensive damage to Wolbachia in the hypodermal area”. Moreover, in data set [3], the side effects result is given as “few side effects, with the most common side effect being diarrhea”.
